{
  "source": "patent US9757484B2",
  "about": "(Otonomy, Inc., priority 2014, dated 2017)",
  "key": {"[1]": {"test": "Loss on drying (form anhydrous/hydrate of ciprofloxacin)", "format": "physicochemical", "conditions": "solid dried 40° C. oven 24 hours, then 125° C. oven one hour; weight loss due to 125° C.", "method": "To assess the form of ciprofloxacin samples described in the present disclosure, a comparison experiment is conducted to evaluate the sample's loss of weight upon heating. […] The conditions and results of the experiment are summarized below:\nExperimental Setup—Loss on Drying: • If suspension: Pipette cipro suspension onto filter on vacuum filter flask • Transfer filter/dry powder to 40° C. oven, hold 24 hours • Transfer solid to pre-weighed aluminum pan and weigh solid • Transfer pan to 125° C. oven, hold one hour • Weigh again and determine weight loss due to 125° C."}, "[2]": {"test": "Particle size (D90) of ciprofloxacin", "format": "physicochemical", "text": "The final drug product has particle size of D90 of about 25 μm. […] In some embodiments, it is the use of a lower sterilization temperature and homogenization of the suspension during the sterilization process that contributes to the particle size distribution of ciprofloxacin in the suspension, and in the final product."}},
  "data": [
    {"smiles": "O=C(O)c1cn(C2CC2)c2cc(N3CCNCC3)c(F)cc2c1=O", "note": "[Sample 1, Ciprofloxacin]", "values": [
      {"measurement": "Weight Loss on Drying", "setting": "[1]", "value": 0.1, "unit": "%"},
      {"measurement": "particle size D90", "setting": "[2]; listed as Ciprofloxacin free base anhydrous API powder", "value": "under 15 μm"}
    ]},
    {"smiles": "O=C(O)c1cn(C2CC2)c2cc(N3CCNCC3)c(F)cc2c1=O", "note": "[Sample 2, Ciprofloxacin]", "values": [
      {"measurement": "Weight Loss on Drying", "setting": "[1]", "value": 11.1, "unit": "%"},
      {"measurement": "particle size D90", "setting": "[2]; listed as hydrate form", "value": "around 60 μm"}
    ]}
  ]
}
